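Cells were grown in 96-well plates and exposed to each compound for 48 hours at five concentrations; endpoints were interpolated linearly between bracketing concentrations, or set to the highest concentration if not reached. Here, GI50 denotes the concentration required for 50% inhibition of growth.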 Activity calls are given as the source filed them. No stated cut-off is given here; in the data, active = GI50 up to about 1.1 µM and inactive = higher.
Assays:
Test in all cases: DTP human tumour cell line panel, 48 h
NCI-H23 = tested on: NCI-H23
NCI-H522 = tested on: NCI-H522
KM12 = tested on: KM12
SK-MEL-5 = tested on: SK-MEL-5
OVCAR-3 = tested on: OVCAR-3
HOP-92 = tested on: HOP-92
HT-29 = tested on: HT-29
SN12C = tested on: SN12C
SK-OV-3 = tested on: SK-OV-3
HCT-15 = tested on: HCT-15
TK-10 = tested on: TK-10
NCI-H226 = tested on: NCI-H226
OVCAR-5 = tested on: OVCAR-5
Malme-3M = tested on: Malme-3M
A549 = tested on: A549
HOP-62 = tested on: HOP-62
HCT-116 = tested on: HCT-116
UACC-257 = tested on: UACC-257
SF-268 = tested on: SF-268

Compound | GI50 (NCI-H23) | GI50 (NCI-H522) | GI50 (KM12) | GI50 (SK-MEL-5) | GI50 (OVCAR-3) | GI50 (HOP-92) | GI50 (HT-29) | GI50 (SN12C) | GI50 (SK-OV-3) | GI50 (HCT-15) | GI50 (TK-10) | GI50 (NCI-H226) | GI50 (OVCAR-5) | GI50 (Malme-3M) | GI50 (A549) | GI50 (HOP-62) | GI50 (HCT-116) | GI50 (UACC-257) | GI50 (SF-268)
CCCCC(C(=O)CCC(=O)Nc1ccc(Cl)cc1)C(=O)C(C)C (configuration not stated) | > 100 µM (inactive) | > 100 µM (inactive) | > 100 µM (inactive) | > 100 µM (inactive) | > 100 µM (inactive) | > 100 µM (inactive) | > 100 µM (inactive) | > 100 µM (inactive) | > 100 µM (inactive) | > 100 µM | > 100 µM (inactive) | > 100 µM (inactive) | > 100 µM (inactive) | > 100 µM (inactive) | > 100 µM (inactive) | > 100 µM (inactive) | > 100 µM (inactive) | > 100 µM (inactive) | > 100 µM (inactive)
NC(CCSCC(F)F)C(=O)O (configuration not stated) | > 100 µM (inactive) | > 100 µM (inactive) | > 100 µM (inactive) | > 100 µM (inactive) | > 100 µM (inactive) | > 100 µM (inactive) | > 100 µM (inactive) | > 100 µM (inactive) | – | > 100 µM | > 100 µM (inactive) | > 100 µM (inactive) | > 100 µM (inactive) | > 100 µM (inactive) | > 100 µM (inactive) | > 100 µM (inactive) | > 100 µM (inactive) | > 100 µM (inactive) | > 100 µM (inactive)
O=C(c1cc(O)ccc1O)c1ccccc1C(Cl)(Cl)Cl | 58.2 µM (inactive) | 57.1 µM (inactive) | > 100 µM (inactive) | 35.6 µM (inactive) | 79.1 µM (inactive) | 38.8 µM (inactive) | > 100 µM (inactive) | > 100 µM (inactive) | > 100 µM (inactive) | > 100 µM | > 100 µM (inactive) | > 100 µM (inactive) | > 100 µM (inactive) | > 100 µM (inactive) | > 100 µM (inactive) | > 100 µM (inactive) | > 100 µM (inactive) | 39 µM (inactive) | > 100 µM (inactive)
CCN(CC)CC(C(=O)Nc1c(C)cccc1C)/C(C)=N\NC(=S)NN (configuration not stated) | > 100 µM (inactive) | > 100 µM (inactive) | > 100 µM (inactive) | > 100 µM (inactive) | > 100 µM (inactive) | > 100 µM (inactive) | > 100 µM (inactive) | – | > 100 µM (inactive) | – | > 100 µM (inactive) | > 100 µM (inactive) | > 100 µM (inactive) | > 100 µM (inactive) | > 100 µM (inactive) | > 100 µM (inactive) | > 100 µM (inactive) | > 100 µM (inactive) | > 100 µM (inactive)
O=C1NC(Cc2ccccc2)C(=O)N2CCCC12 (configuration not stated) | – | > 100 µM (inactive) | > 100 µM (inactive) | > 100 µM (inactive) | > 100 µM (inactive) | > 100 µM (inactive) | > 100 µM (inactive) | > 100 µM (inactive) | > 100 µM (inactive) | > 100 µM | > 100 µM (inactive) | > 100 µM (inactive) | > 100 µM (inactive) | > 100 µM (inactive) | > 100 µM (inactive) | > 100 µM (inactive) | > 100 µM (inactive) | > 100 µM (inactive) | > 100 µM (inactive)
COC1=CC(C)C2C[C@H]3O[C@H](O)C[C@H]4C(C)C(=O)C(O)C([C@@]2(C)C1=O)[C@@]34C (some centres not stated) | > 100 µM (inactive) | > 100 µM (inactive) | > 100 µM (inactive) | > 100 µM (inactive) | > 100 µM (inactive) | > 100 µM (inactive) | > 100 µM (inactive) | > 100 µM (inactive) | > 100 µM (inactive) | > 100 µM | > 100 µM (inactive) | > 100 µM (inactive) | – | > 100 µM (inactive) | > 100 µM (inactive) | – | > 100 µM (inactive) | > 100 µM (inactive) | –

Reference: ChEMBL document CHEMBL1201862, “PubChem BioAssay data set” (2004)
